# Assay results from ChEMBL document CHEMBL1143015, “Hyrtinadine A, a bis-indole alkaloid from a marine sponge” (J Nat Prod, 2007).
# Columns and labels:
# KB = test: Cytotoxicity against human KB cells; assay type: cell-based
# L1210 = test: Cytotoxicity against mouse L1210 cells; assay type: cell-based
structure (smiles),measurement,setting,value
Oc1ccc2[nH]cc(-c3cnc(-c4c[nH]c5ccc(O)cc45)nc3)c2c1 [HYRTINADINE A],IC50,KB,3 µg/mL
same,IC50,L1210,1 µg/mL
